Measurements from patent US10457677B2 (priority 2015, dated 2019).

Columns and labels:
[1] = molecular target: purified human recombinant ATM (ataxia telangiectasia mutated), full length (Homo sapiens (Human), UniProt Q13315); assay: ATM kinase assay - determination of ATM inhibition (IC50 ATM), TR-FRET; type: biochemical; conditions: 10 μM ATP, substrate p53
Experimental: ATM kinase assay—determination of ATM inhibition (IC50 ATM):
The IC50 value was determined with the aid of a biochemical ATM kinase assay. The assay consists of two steps: the enzymatic reaction and the detection step. Firstly, ATM (ataxia telangiectasia mutated) protein and the test substance are incubated at different concentrations with addition of substrate protein p53 and ATP. ATM mediates the phosphorylation of p53 at several positions, including at amino acid S15. The amount of phosphorylated p53 is determined with the aid of specific antibodies and the TR-FRET technique. The enzymatic ATM assay is carried out as TR-FRET (HTRF™, Cisbio Bioassays) based 384-well assay. In the first step, purified human recombinant ATM (human ATM, full length, GenBank ID NM_000051, expressed in a mammal cell line) is incubated in assay buffer for 15 minutes with the ATM inhibitor in various concentrations and without test substance as negative or neutral control. The assay buffer comprises 25 mM HEPES pH 8.0, 10 mM Mg(CH3COO)2, 1 mM MnCl2, 0,1% BSA and 0,01% Brij® 35, 5 mM dithiothreitol (DTT). […] In the second step, purified human recombinant cmyc-labelled p53 (human p53, full length, GenBank ID BC003596, expressed in Sf21 insect cells) and ATP are added, and the reaction mixture is incubated at 22° C. for 30-35 minutes. The pharmacologically relevant assay volume is 5 μl. […] The enzymatic reaction is stopped by addition of EDTA. […] After incubation, usually for 2 hours (between 1.5 and 15h), for signal development, the plates are analysed in a plate reader (EnVision, PerkinElmer) using TRF mode (and with laser excitation). […] The measurement data were processed by means of Genedata Screener software.

[2] = system: phosphorylation of CHK2 (phospho-Thr68) in HCT116 cells; assay: Cellular pCHK2 assay: bleomycin-induced phosphorylation of CHK2 (phospho-Thr68), immunofluorescence high-content analysis; type: cell-based, human; conditions: Homo sapiens, HCT-116, 4 h, read-out: IC50 (pCHK2)
Description: For the identification of substances which inhibit the phosphorylation of the protein kinase CHK2 at the amino acid threonine 68, an immunofluorescence-based “high content” analysis assay was used in HCT116 cells.
In vitro cell-based immunofluorescence assay for the identification of inhibitors of bleomycin-induced phosphorylation of CHK2 (phospho-Thr68) in the human colon carcinoma cell line HCT116:
HCT116 cells are sown out in a defined cell density in 384-well plates in culture medium (DMEM high glucose, 2 mM GlutaMax, 1 mM Na pyruvate, 10% FCS) and incubated overnight at 37° C. and 10% of CO2. On the following day, the test substances are added in a defined concentration range (1 nM to 30 μM) in combination with 10 μM bleomycin, where the concentration of the solvent DMSO is kept constant at 0.5%. […] Parallel staining of DNA with propidium iodide enables determination of the cell count. The pCHK2 signal is detected using a high-content imager (Molecular Devices IMX Ultra) and automatic image analysis using the MetaXpress software belonging to the instrument. The number of cell nuclei which have a pCHK2 signal above a defined background is determined.

PI3K p110α/p85α (human) = PI3K p110α/p85α (human) (Homo sapiens (Human), UniProt P42336); assay: PI3K p110α/p85α (human), non-radioactive assay (HTRF); type: biochemical; conditions: as printed:
Experimental: PI3K p110α/p85α (Human), Non-radioactive Assay
(§1) PI3K p110α/p85α (human) was incubated in an assay buffer comprising 10 μM phosphati-dylinositol 4,5-bisphosphate and MgATP (concentration as necessary). The reaction was initiated by addition of MgATP solution. After incubation at room temperature for 40 minutes, the reaction was stopped by addition of a solution consisting of EDTA and biotinylated phosphatidylinositol 3,4,5-trisphosphate. Finally, the detection buffer, consisting of a europium-labelled anti-GST monoclonal antibody, a GST-labelled GRP1 PH domain and streptavidin allophycocyanin, was added. The plate was read out via homogeneous time-resolved fluorescence (HTRF) and the corresponding signals were evaluated via the formula HTRF=10000×(Em665nm/Em620nm).

PI3K (p120γ) (human) = PI3K (p120γ) (human) (Homo sapiens (Human), UniProt P48736); assay: PI3K (p120γ) (human), non-radioactive assay (HTRF); type: biochemical; conditions: as printed:
Experimental: PI3K (p120γ) (Human), Non-radioactive Assay
as §1, with “(p120γ)” for “p110α/p85α”, “After an” for “After”, “incubation time of 30 min” for “incubation”, “temperature,” for “temperature for 40 minutes,”, “HTRF=10000×(Em665nm/Em620nm). • MgATP=magnesium 5′-O—[hydroxy({[(hydroxyphosphinato)oxy]phosphinato}oxy)phosphoryl]adenosine • MgCl2=magnesium dichloride • EGTA=ethylene glycol bis(aminoethyl ether) N,N,N′,N′-tetraacetic acid • Tween 20=polysorbate 20 Medicament/pharmaceutical Composition” for “HTRF=10000×(Em665nm/Em620nm).”

PI3K p110δ/p85α (human) = PI3K p110δ/p85α (human) (Homo sapiens (Human), UniProt O00329); assay: PI3K p110δ/p85α (human), non-radioactive assay (HTRF); type: biochemical; conditions: as printed:
Experimental: PI3K p110δ/p85α (Human), Non-radioactive Assay
as §1, with “p110δ/p85α” for “p110α/p85α”, “After an” for “After”, “incubation time of 30 min” for “incubation”, “temperature,” for “temperature for 40 minutes,”

Sequence of PI3K (p120γ) (human) (P48736 whole entry): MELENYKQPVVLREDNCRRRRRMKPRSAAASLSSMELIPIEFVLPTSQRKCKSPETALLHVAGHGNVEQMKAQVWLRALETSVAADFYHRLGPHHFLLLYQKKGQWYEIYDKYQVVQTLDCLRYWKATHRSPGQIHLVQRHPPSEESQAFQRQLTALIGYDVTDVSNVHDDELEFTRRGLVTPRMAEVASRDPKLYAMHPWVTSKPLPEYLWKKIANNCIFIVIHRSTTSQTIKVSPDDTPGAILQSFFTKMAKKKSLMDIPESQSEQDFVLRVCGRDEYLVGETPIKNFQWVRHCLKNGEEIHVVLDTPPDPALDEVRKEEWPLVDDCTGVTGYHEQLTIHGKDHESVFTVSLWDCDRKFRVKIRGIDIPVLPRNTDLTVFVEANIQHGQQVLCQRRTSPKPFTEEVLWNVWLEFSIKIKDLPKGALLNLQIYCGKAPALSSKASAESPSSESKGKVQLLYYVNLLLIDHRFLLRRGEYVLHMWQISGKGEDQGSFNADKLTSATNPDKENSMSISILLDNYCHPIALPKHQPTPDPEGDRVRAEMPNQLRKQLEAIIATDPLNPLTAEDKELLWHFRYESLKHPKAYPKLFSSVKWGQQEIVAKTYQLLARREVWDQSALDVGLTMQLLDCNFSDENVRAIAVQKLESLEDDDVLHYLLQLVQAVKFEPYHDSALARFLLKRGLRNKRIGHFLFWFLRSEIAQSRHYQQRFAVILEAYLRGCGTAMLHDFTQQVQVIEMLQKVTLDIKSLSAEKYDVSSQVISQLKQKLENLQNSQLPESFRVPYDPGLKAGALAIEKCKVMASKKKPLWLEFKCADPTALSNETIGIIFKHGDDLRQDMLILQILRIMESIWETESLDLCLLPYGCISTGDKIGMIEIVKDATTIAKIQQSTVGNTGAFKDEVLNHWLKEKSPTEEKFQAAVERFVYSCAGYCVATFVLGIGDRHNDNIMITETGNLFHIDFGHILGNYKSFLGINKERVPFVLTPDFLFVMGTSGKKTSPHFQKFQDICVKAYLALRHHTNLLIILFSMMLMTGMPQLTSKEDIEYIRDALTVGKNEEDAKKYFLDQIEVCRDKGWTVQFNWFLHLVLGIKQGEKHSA
Sequence of PI3K p110α/p85α (human) (P42336 whole entry): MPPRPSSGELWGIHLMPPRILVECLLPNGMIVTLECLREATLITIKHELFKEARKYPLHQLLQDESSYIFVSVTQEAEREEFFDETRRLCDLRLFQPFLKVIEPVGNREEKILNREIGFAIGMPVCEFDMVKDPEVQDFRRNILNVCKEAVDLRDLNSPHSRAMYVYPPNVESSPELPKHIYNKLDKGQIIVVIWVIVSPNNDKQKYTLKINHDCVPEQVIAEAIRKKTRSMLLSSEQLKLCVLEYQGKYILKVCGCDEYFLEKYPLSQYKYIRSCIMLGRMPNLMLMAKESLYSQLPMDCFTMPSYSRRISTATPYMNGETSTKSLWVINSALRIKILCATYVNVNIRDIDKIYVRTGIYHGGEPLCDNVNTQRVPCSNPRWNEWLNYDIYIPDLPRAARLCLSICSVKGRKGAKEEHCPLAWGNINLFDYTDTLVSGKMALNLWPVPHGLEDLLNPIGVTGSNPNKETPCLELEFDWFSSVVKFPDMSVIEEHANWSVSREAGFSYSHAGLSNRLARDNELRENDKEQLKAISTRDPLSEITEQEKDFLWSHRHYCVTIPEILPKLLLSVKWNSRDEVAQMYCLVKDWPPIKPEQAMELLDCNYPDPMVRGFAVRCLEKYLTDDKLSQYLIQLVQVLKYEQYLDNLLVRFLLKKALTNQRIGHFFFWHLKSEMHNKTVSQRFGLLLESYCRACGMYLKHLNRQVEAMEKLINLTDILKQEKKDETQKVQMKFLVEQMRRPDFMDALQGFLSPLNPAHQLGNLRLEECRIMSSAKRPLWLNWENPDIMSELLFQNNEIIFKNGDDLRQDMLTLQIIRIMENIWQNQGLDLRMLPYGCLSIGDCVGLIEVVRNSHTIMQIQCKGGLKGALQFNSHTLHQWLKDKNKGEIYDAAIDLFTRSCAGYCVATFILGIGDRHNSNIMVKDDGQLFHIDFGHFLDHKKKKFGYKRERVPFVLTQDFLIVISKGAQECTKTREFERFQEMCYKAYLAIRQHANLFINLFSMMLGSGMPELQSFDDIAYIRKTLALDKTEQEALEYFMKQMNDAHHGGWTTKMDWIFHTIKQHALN
Sequence of PI3K p110α/p85α (human) (P27986 whole entry partner): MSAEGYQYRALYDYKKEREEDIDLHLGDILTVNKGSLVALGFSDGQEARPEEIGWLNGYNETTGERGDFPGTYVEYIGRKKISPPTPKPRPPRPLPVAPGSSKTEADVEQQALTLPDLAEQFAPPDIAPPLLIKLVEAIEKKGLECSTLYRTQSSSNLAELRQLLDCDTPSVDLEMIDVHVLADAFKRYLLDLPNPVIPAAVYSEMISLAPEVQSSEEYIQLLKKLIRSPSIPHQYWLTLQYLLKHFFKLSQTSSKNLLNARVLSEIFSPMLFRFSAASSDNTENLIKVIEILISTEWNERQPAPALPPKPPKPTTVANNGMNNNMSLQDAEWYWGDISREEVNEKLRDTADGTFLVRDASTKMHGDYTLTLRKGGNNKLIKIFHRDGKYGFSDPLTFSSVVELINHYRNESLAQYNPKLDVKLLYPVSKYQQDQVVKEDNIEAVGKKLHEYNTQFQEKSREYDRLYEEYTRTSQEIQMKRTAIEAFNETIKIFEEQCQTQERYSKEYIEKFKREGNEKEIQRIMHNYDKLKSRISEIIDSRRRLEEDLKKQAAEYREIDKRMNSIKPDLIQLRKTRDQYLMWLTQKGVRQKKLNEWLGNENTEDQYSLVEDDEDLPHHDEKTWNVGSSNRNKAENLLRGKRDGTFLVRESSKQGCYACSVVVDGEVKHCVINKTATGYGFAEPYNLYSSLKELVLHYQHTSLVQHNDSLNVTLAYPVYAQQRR
Sequence of PI3K p110δ/p85α (human) (O00329 whole entry): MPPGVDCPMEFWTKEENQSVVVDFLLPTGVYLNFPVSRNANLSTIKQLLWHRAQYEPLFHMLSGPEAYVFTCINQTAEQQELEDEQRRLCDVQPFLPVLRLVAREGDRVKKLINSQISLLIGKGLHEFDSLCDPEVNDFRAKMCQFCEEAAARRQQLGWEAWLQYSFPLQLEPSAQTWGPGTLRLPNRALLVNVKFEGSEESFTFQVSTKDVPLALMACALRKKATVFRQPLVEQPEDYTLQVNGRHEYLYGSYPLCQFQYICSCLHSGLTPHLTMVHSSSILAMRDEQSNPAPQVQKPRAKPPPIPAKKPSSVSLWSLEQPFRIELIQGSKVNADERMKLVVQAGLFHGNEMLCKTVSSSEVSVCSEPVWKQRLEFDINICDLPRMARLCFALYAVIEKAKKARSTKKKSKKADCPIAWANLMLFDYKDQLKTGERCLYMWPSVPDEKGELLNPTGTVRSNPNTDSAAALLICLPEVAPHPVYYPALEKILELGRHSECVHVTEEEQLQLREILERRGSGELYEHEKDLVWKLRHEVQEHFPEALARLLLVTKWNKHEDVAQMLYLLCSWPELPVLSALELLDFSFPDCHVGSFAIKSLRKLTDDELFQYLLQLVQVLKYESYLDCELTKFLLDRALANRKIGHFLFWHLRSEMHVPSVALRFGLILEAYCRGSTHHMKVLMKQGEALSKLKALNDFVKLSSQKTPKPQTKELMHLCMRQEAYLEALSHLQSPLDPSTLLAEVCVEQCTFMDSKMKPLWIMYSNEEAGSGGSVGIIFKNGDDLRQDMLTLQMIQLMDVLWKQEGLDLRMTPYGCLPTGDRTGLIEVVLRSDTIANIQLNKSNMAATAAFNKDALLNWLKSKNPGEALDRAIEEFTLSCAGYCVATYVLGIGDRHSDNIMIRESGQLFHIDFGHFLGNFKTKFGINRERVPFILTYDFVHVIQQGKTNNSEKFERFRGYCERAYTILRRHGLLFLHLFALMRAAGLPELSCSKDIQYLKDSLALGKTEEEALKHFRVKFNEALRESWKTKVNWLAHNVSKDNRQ
Sequence of PI3K p110δ/p85α (human) (P27986 whole entry partner): as the sequence (P27986 whole entry partner) above

| SMILES | IC50 [1] [nM] | IC50 [2] [nM] | ratio IC50 (ATM) vs PI3Kalpha, selectivity with respect to PI3Kalpha (PI3K p110α/p85α (human)) | ratio IC50 (ATM) vs PI3Kgamma, selectivity with respect to PI3Kgamma (PI3K (p120γ) (human)) | ratio IC50 (ATM) vs PI3Kdelta, selectivity with respect to PI3Kdelta (PI3K p110δ/p85α (human)) |
| --- | --- | --- | --- | --- | --- |
| COCCOc1cnc(-n2c(=O)n(C)c3cnc4cc(OC)c(-c5cnn(C)c5)cc4c32)c(F)c1 [compound 66, 1-[3-Fluoro-5-(2-methoxy-ethoxy)-2-pyridyl]-7-methoxy-3-methyl-8-(1-methylpyrazol-4-yl)imidazo-[4,5-c]quinolin-2-one] | < 1 | < 200 | at least 2000 times | at least 2000 times | at least 2000 times |
| COc1cc2ncc3c(c2cc1-c1cnn(C)c1)n(-c1ncc(OCCO)cc1F)c(=O)n3C [compound 67, 1-[3-Fluoro-5-(2-hydroxy-ethoxy)-2-pyridyl]-7-methoxy-3-methyl-8-(1-methylpyrazol-4-yl)imidazo-[4,5-c]quinolin-2-one] | < 1000 | < 200 | at least 2000 times | at least 2000 times | at least 2000 times |
| COc1cnc(-n2c(=O)n(C)c3cnc4cc(OC)c(-c5cnn(C)c5)cc4c32)c(F)c1 [compound 105, 1-(3-Fluoro-5-methoxy-pyridin-2-yl)-7-methoxy-3-methyl-8-(1-methyl-1H-pyrazol-4-yl)-1,3-dihydro-imidazo[4,5-c]quinolin-2-one] | < 1 | 200 to 1000 | – | – | – |
| COc1cc2ncc3c(c2cc1-c1cnn(C)c1)n(-c1ncc(OC(F)F)cc1F)c(=O)n3C [compound 114, 1-(5-Difluoromethoxy-3-fluoropyridin-2-yl)-7-methoxy-3-methyl-8-(1-methyl-1H-pyrazol-4-yl)-1,3-dihydroimidazo[4,5-c]-quinolin-2-one] | < 1 | < 200 | at least 2000 times | at least 2000 times | at least 2000 times |
| COc1cc2ncc3c(c2cc1-c1c[nH]nc1C)n(-c1ncc(F)cc1F)c(=O)n3C [compound 117, 1-(3,5-Difluoropyridin-2-yl)-7-methoxy-3-methyl-8-(3-methyl-1H-pyrazol-4-yl)-1,3-dihydroimidazo[4,5-c]-quinolin-2-one] | < 10 | 200 to 1000 | at least 2000 times | at least 2000 times | at least 2000 times |
| COc1cc2ncc3c(c2cc1-c1cnn(C)c1)n(-c1cc2[nH]ccc2cn1)c(=O)n3C [compound 120, 7-Methoxy-3-methyl-8-(1-methyl-1H-pyrazol-4-yl)-1-(1H-pyrrolo[3,2-c]pyridin-6-yl)-1,3-dihydroimidazo-[4,5-c]quinolin-2-one] | < 1 | 200 to 1000 | at least 2000 times | at least 2000 times | at least 2000 times |
| COc1cc2ncc3c(c2cc1-c1cc[nH]n1)n(-c1cn(C)nc1C)c(=O)n3C [compound 121, 1-(1,3-Dimethyl-1H-pyrazol-4-yl)-7-methoxy-3-methyl-8-(1H-pyrazol-3-yl)-1,3-dihydroimidazo[4,5-c]-quinolin-2-one] | < 10 | < 200 | – | – | – |
| COc1cnc(-n2c(=O)n(C)c3cnc4cc(OC)c(-c5c[nH]nc5C)cc4c32)c(F)c1 [compound 122, 1-(3-Fluoro-5-methoxy-pyridin-2-yl)-7-methoxy-3-methyl-8-(3-methyl-1H-pyrazol-4-yl)-1,3-dihydro-imidazo[4,5-c] quinolin-2-one] | < 1 | < 200 | at least 2000 times | at least 2000 times | at least 2000 times |
| CNC(=O)c1cnc(-n2c(=O)n(C)c3cnc4cc(OC)c(-c5cnn(C)c5)cc4c32)c(F)c1 [compound 138, 5-Fluoro-6-[7-methoxy-3-methyl-8-(1-methyl-1H-pyrazol-4-yl)-2-oxo-2,3-dihydroimidazo[4,5-c]-quinolin-1-yl]-N-methyl-nicotinamid] | < 10 | 200 to 1000 | – | – | – |
| COc1cc2ncc3c(c2cc1-c1cnn(C)c1)n(-c1cn(C)nc1F)c(=O)n3C [compound 141, 1-(3-Fluoro-1-methyl-1H-pyrazol-4-yl)-7-methoxy-3-methyl-8-(1-methyl-1H-pyrazol-4-yl)-1,3-dihydro-imidazo[4,5-c]quinolin-2-one] | < 10 | 200 to 1000 | – | – | – |
| COc1cc2ncc3c(c2cc1-c1cn(C)nc1C)n(-c1c(F)cncc1OC(F)F)c(=O)n3C [compound 147, 1-(3-Difluoromethoxy-5-fluoropyridin-4-yl)-8-(1,3-dimethyl-1H-pyrazol-4-yl)-7-methoxy-3-methyl-1,3-dihydroimidazo[4,5-c]-quinolin-2-one] | < 1 | < 200 | – | – | – |
| [2H]C([2H])([2H])Oc1cnc(-n2c(=O)n(C)c3cnc4cc(OC)c(-c5cnn(C)c5)cc4c32)c(F)c1 [compound 155, 1-[3-Fluoro-5-(trideuterio-methoxy)-2-pyridyl]-7-methoxy-3-methyl-8-(1-methylpyrazol-4-yl) imidazo-[4,5-c]quinolin-2-one] | < 1 | < 200 | – | – | – |
| CCc1cnccc1-n1c(=O)n(C)c2cnc3cc(OC)c(-c4cnn(CC)c4)cc3c21 [compound 157, 8-(1-Ethyl-1H-pyrazol-4-yl)-1-(3-ethylpyridin-4-yl)-7-methoxy-3-methyl-1,3-dihydroimidazo[4,5-c] quinolin-2-one] | < 10 | < 200 | – | – | – |
